# In paper PMC12216609, “Inhibitors of eIF1A-ribosome interaction unveil uORF-dependent regulation of translation initiation and antitumor and antiviral effects” (The EMBO Journal, 2025):
# Several values for one entry are separate records, joined by “and”; a condition that tells them apart may be missing. Equal values may be shown once. Read-outs that look alike come from different tables or passages of the source.
# Experiments:
# [1] = molecular target: T1, eIF1A-RPS10 interaction (Homo sapiens, UniProt P46783+P47813); test: Split-Renilla luciferase eIF1A-RPS10 interaction screen, dose-response; type: biochemical; settings: Appendix Table S1; read-out: IC50 from the split RL screen
# T1 construct: made in house; host or cells: E. coli BL21 (PRSFduet); unpurified lysate supernatant
# T1 sequence (P47813 whole entry, one chain of several): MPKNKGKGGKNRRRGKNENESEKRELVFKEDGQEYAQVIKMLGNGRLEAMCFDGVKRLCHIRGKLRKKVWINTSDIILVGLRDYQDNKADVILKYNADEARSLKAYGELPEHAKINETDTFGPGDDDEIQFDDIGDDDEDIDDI
# Experimental: While knockdown (KD) studies of eIF1A provided valuable insights into its role in mammalian cell translation (Sehrawat et al, [2019]), this approach presents several limitations. First, it fails to elucidate the functional significance of the opposing functions of eIF1A N- and C-terminal tails with respect to scanning and start codon fidelity. Second, the extended duration required for achieving efficient knockdown, 48–72 h, impairs our ability to differentiate between direct and indirect effects. To overcome these constraints, we set out to develop small-molecule inhibitors targeting eIF1A. Guided by structural and biochemical studies showing eIF1A binding to the small ribosomal subunit at the A-site and interacting directly with RPS10 through its N-terminal tail (Haimov et al, [2017]; Passmore et al, [2007]; Sehrawat et al, [2019]), our approach focused on disrupting the interaction between eIF1A and RPS10. […] The interaction between eIF1A and RPS10 brings the two parts together, leading to the reconstitution of the enzymatic activity (Haimov et al, [2017]). In this system, the spatial arrangement of the two RL parts is critical for the enzymatic activity, making it sensitive not only to direct interference with the interacting proteins but also to changes in the conformation of the fused proteins. In the eIF1A-RPS10 split-RL pair, the C-terminus of eIF1A is fused to N-RL (Fig. 1A), in order to maintain the NTT accessible to RPS10 binding. This pair was cloned and expressed in bacteria as recombinant proteins and used to screen a library of ~50,000 small molecules from diverse sources (Ashkenazi et al, [2017]).
# eIF1A-ΔC-Renilla and RPS10-ΔN-Renilla were transformed into BL21 E. coli by heat shock transformation. A bacterial starter of 5 ml LB was incubated overnight at 37 °C and transferred into 1 L LB for incubation at 37 °C until OD ~ 0.5–0.7. Next, protein expression was induced with 0.5 mM IPTG, and bacterial cells were incubated overnight at 16 °C. Bacterial cell pellet was collected after centrifugation (3000 RPM, 15 min), resuspended in 20 ml TKE buffer (Tris 10 mM, KCl 100 mM, EDTA 0.1 mM), sonicated (bath sonicator, 24 cycles of 30 s) and centrifuged again (15000 RPM, 30 min). Supernatants were collected, analyzed for RL activity, and then used for high throughput drug screen (HTS) at the Weizmann G-INCPM HTS unit as described (Ashkenazi et al, [2017]). In addition to the standard controls of this protocol, the two parts of the split RL, without eIF1A or RPS10, were tested as controls. Selected compounds were purchased from Sigma-Aldrich and Enamine. Compound powders were resuspended in DMSO for a final concentration of 10 mM and stored at −20 °C.
# [2] = system: CUG/GUG vs AUG start codon luciferase reporters in HEK293T cells; test: Near-cognate AUG starting codon fidelity reporter assay (GUG, CUG vs AUG); type: cell-based; settings: for CUG vs AUG (%): CUG start codon reporter relative to AUG reporter (AUG = 100); for CUG vs AUG (%) / GUG vs AUG (%): compound at 20uM (summary head), single-experiment calculation; for GUG vs AUG (%): GUG start codon reporter relative to AUG reporter (AUG = 100); for GUG vs AUG data (%): individual repeat; for GUG vs AUG (%) Average: summary average of repeats, DMSO control average […]
# Experimental: We next considered the importance of eIF1A in controlling start codon fidelity in yeast and mammalian cells (Martin-Marcos et al, [2011]; Martin-Marcos et al, [2017]; Sehrawat et al, [2019]; She et al, [2023]) and tested how inhibition of eIF1A by 1Ais affects the initiation from near-cognate AUG. The effect of 1Ais was analyzed using firefly luciferase reporters bearing either AUG (control), CUG, or GUG as the exclusive translation initiation sites. Co-transfected GFP reporter served as an internal control for transfection efficiency.
# For the near-cognate AUG Starting codon fidelity reporter assay, HEK293T cells were transfected with 100 ng of the previously described luciferase reporter constructs driven either by AUG, CUG, and GUG (Tang et al, [2017]) together with GFP expressing plasmid (20 ng) as normalizing control. Luciferase and GFP levels were determined as described above.
# Appendix Figure S1: (A) HEK293T cells were transfected with Luciferase reporter genes with either CUG or AUG as their exclusive starting codon. 6 hours after transfection, cells were exposed to 1Ais, and the luminescence from all constructs was measured after overnight incubation. Bars represent the ratio between luminescence from the AUG starting codon and CUG after normalization with co-transfected GFP; Error bars represent SEM, * denotes p<0.05 (T-test comparing to DMSO control), n=≥4 independent biological replicates.
# [3] = system: cap-proximal AUG GFP reporter in HEK293T cells; type: cell-based; settings: GFP WB densitometry; 20 µM overnight; dmso 0.965946
# Excerpt: Translation from an AUG preceded by a very short 5'UTR (less than 30 nt) is usually inefficient and frequently bypassed, resulting in initiation from a downstream AUG, a phenomenon known as leaky scanning. […] To examine the impact of 1Ais on short 5'UTR initiation, we used a GFP reporter gene containing an AUG located 16 nt downstream from the 5' end followed by a second in-frame downstream AUG (Fig. 1F; Appendix Fig. S1B). Cells were transfected with this GFP reporter gene followed by exposure to DMSO (vehicle) and 1Ais. Initiations from upstream (US) or downstream (DS) AUGs were determined by western blot (WB) with anti-GFP antibodies and the ratio between the US and DS AUG was determined.
# For the analysis of translation from very short 5'UTR and Leaky scanning, HEK293T cells were transfected with a GFP (20 ng/well) reporter gene driven by a cap-proximal and downstream AUGs (Elfakess et al, [2011]) together with a luciferase reporter gene (100 ng/well) as normalizing control and treated with 20 µM of 1Ais as described above. GFP levels were determined by Western blot (WB) (GFP antibody, Abcam #ab290) and quantified by densitometry (ImageJ) and normalized to the measured luciferase activity.
# HEK293T cells were transfected with the GFP reporter gene schematically shown on the top. The first
# AUG is […] from the 5’ end and the downstream AUG is in the same frame. Six hours after transfection, cells were treated with 1Ais. After overnight exposure to 1Ais, GFP expression was analyzed by WB using anti -GFP antibodies.
# US/DS ratio was determined by densitometry and represents the long protein expression (upstream AUG, US) vs the […]
# biological replicates. (C-D) Analysis of reporter genes mRNA levels after 1Ais treatment.
# [4] = system: IRF7 5'UTR firefly luciferase reporter in HEK293T cells; settings: for LONG (summary - All), normalized to DMSO / SHORT (summary - All), normalized to DMSO: individual replicates, outliers excluded, DMSO = 1; for average ( long vs short ratio): summary - All; for Long 5'UTR reporter luciferase activity, normalized to DMSO (=1), single replicates: compound at 20 µM, left data block (Long), source data of Fig 1C;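 as to all read-outs here: luciferase signal corrected by a co-transfected GFP reporter for transfection efficiency, read after overnight compound exposure, with Long and Short reporters differing in 5'UTR length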
# [5] = molecular target: NSP1 (Severe acute respiratory syndrome coronavirus 2, UniProt P0DTD1)
# [6] = system: OVCAR8 cell-derived xenograft; test: Xenografts growth after 1Ais treatment in mice; type: in vivo
SMILES,IC50 [1] [µM],GUG vs AUG data (%) ([2]; compound at 20uM),GUG vs AUG (%) Average ([2]; compound at 20uM) [%],"US/DS ratio, average [3]","LONG (summary - All), normalized to DMSO ([4]; Long reporter, 20 µM)","SHORT (summary - All), normalized to DMSO ([4]; Short reporter, 20 µM)",average ( long vs short ratio) ([4]; 20 µM),further results
O=C1c2ccccc2NC(c2cc(Cl)c3c(c2)OCO3)N1C1CC1 (centres unmarked) [1Ai-6586],24,1.26% and 0.96% and 1.21% and 1.81%,1.31,0.8389,0.0557 and 0.45 and 1.19 and 0.73,0.06 and 0.81 and 0.69 and 1.23,0.871,CUG vs AUG (%) [2]: 6.859%; GUG vs AUG (%) [2]: 1.078%
c1csc(-c2nc(NCc3nnc4ccccn34)c3ccccc3n2)c1 [1Ai-2136],29,1.58% and 2.63% and 2.62% and 2.27%,2.27,0.8866,0.43 and 0.72 and 0.55 and 0.54,0.63 and 0.25 and 0.98 and 0.99 and 0.71 and 0.58,0.813,"Long 5'UTR reporter luciferase activity, normalized to DMSO (=1), single replicates [4]: 0.43 and 1.0233 and 1.053 and 0.724 and 0.552 and 0.5382"
COc1ccc(CN(Cc2nn3c(=O)cc(C)nc3s2)C(C)Cc2cccs2)cc1 (centres unmarked) [1Ai-5751],18,1.65% and 1.59% and 3.31% and 1.26%,1.95,1.056,0.26 and 0.28 and 0.72 and 0.89 and 0.77 and 0.31,0.74 and 0.11 and 0.73 and 0.61 and 0.46 and 0.21,1.128,"Long 5'UTR reporter luciferase activity, normalized to DMSO (=1), single replicates [4]: 0.2584 and 0.2757 and 0.7216 and 0.8893 and 0.7688 and 0.3143; GFP reporter ratio nsp1/gfp, avg [5]: 0.4183; GFP reporter ratio nsp1/gfp, rep 1 [5]: 0.4426; GFP reporter ratio nsp1/gfp, rep 2 [5]: 0.3941; gfp signal, mean of duplicate wells [5]: 2691 and 4145; nsp1 signal, mean of duplicate wells [5]: 1060.5 and 1834.5; ratio (nsp1/gfp) [5]: 0.394 and 0.443"
O=C(Nc1nc(-c2c[nH]c3ccccc23)cs1)c1cc(=O)[nH]c2ccccc12 [1Ai-0403],17,,,1.283,,,,"GUG vs AUG data (%) ([2]; compound at 5uM): 1.56% and 2.09% and 1.50% and 2.83%; GUG vs AUG (%) Average ([2]; compound at 5uM): 1.99%; LONG (summary - All), normalized to DMSO ([4]; Long reporter, 5 µM): 0.54 and 1.00 and 0.95; SHORT (summary - All), normalized to DMSO ([4]; Short reporter, 5 µM): 1.05 and 0.93 and 1.12; Long: Normalized to average DMSO ([4]; data section, Long reporter, GFP-corrected, 5 µM, per experiment): 0.5423 and 1 and 0.9496; Short: Normalized to average DMSO ([4]; data section, Short reporter, GFP-corrected, 5 µM, per experiment, includes values excluded as outliers): 1.05 and 0.9341 and 1.121; average ( long vs short ratio) ([4]; 5 µM): 0.803"
NS(=O)(=O)c1cccc(-c2ccc(C3Nc4ccccc4-c4nc5ccccc5n43)o2)c1 (centres unmarked) [1Ai-0050],26,2.02% and 1.27% and 1.28% and 1.15%,1.43,1.064,1.25 and 0.94 and 0.54 and 1.63,0.72 and 0.91,1.337,
COC(=O)C1=C(C)NC2=C(C(=O)CC(c3ccc(F)cc3)C2)C1c1ccc(N(C)C)cc1Cl (centres unmarked) [1Ai-9162],16,2.05% and 2.20% and 2.48% and 2.61%,2.33,0.9825,0.54 and 0.53 and 0.27 and 0.64,0.54 and 0.47 and 0.46,1.009,CUG vs AUG (%) [2]: 9.614%; GUG vs AUG (%) [2]: 2.083%
O=C(Nc1ccc(S(=O)(=O)NC23CC4CC(CC(C4)C2)C3)cc1)c1ccc(Cl)cc1 [1A-3638],,,,,,,,"Weight of tumor, average ([6]; group average): 0.2614; Weight of tumor ([6]; individual animals): 0.6521 and 0.1855 and 0.085 and 0.0594 and 0.2257 and 0.0264 and 0.562 and 0.006 and 0.5508; Tumor weight p-value (t-test vs DMSO) ([6]; t.test vs DMSO): 0.005991"
